Data reported in ChEMBL document CHEMBL5729281, “Dihydrooxadiazinones” (2022).

Experiments:
[1] = target: cGMP-inhibited 3',5'-cyclic phosphodiesterase 3A (Homo sapiens, UniProt Q14432); assay: (§1) PDE3A Enzyme Inhibition: The commercially available 3H-cAMP Scintillation Proximity Assay (SPA, Perkin Elmer) system was used for enzyme inhibition studies. For the determination of the in vitro effect of example compounds on the PDE3A reactions 2 μl of the respective example compound solution in DMSO (serial dilutions) were placed in wells of microtiter plates (Isoplate-96/200W; Perkin Elmer). 50 μl of a dilution of PDE3A cell extract from Sf9 cells overexpressing human full length PDE3A (SB Drug Discovery, UK) in buffer A (50 mM Tris/HCl pH 7.5, 8.3 mM MgCl2, 1.7 mM EDTA, 0.2% BSA) was added. The dilution of the PDE3A cell extract was chosen such that the reaction kinetics was linear and less than 70% of the substrate was consumed (typical dilution 1:5000). The reaction was started by addition of 50 μl (0.025 μCi) of 1:2000 in buffer A w/o BSA diluted substrate [8-3H]adenosine 3′, 5′-cyclic phosphate (1 μCi/μl; Perkin Elmer). After incubation at room temperature for 60 min, the reaction was stopped by addition of 25 μl of a suspension containing 18 mg/ml yttrium scintillation proximity beads (Perkin Elmer) in water. The microtiter plates were sealed and measured in a Microbeta scintillation counter (PerkinElmer Wallac). IC50 values were determined from sigmoidal curves by plotting percentage PDE3A activity vs log compound concentration.
Sequence of cGMP-inhibited 3',5'-cyclic phosphodiesterase 3A (Q14432 whole entry): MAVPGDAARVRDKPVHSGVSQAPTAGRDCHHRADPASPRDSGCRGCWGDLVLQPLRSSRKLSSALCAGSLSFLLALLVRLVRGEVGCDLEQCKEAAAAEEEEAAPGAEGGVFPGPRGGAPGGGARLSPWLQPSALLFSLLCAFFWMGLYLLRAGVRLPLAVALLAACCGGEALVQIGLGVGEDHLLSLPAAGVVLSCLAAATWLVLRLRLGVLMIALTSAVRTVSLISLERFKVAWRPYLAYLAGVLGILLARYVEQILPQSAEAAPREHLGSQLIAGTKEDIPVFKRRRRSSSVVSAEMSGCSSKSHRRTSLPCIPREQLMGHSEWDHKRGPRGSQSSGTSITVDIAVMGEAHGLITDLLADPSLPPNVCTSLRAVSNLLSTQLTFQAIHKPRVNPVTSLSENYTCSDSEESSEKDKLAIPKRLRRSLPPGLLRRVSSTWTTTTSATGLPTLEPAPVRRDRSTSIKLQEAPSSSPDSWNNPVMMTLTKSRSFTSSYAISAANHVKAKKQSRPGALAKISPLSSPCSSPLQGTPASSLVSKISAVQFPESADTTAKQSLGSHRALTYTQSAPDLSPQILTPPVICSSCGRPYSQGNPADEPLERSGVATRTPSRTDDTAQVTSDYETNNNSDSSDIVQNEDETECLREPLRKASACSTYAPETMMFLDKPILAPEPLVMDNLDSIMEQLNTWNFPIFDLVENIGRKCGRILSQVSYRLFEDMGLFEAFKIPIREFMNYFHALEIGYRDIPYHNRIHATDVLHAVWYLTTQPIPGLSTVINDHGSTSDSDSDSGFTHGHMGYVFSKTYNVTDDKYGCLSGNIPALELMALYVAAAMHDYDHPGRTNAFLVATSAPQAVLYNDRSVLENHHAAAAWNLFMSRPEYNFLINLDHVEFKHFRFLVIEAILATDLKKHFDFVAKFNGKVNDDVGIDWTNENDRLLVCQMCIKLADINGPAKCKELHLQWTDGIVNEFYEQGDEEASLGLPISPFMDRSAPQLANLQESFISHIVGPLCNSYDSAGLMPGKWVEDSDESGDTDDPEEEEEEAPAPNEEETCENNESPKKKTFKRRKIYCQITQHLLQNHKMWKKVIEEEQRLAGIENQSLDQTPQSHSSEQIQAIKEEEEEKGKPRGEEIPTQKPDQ

[2] = target: cGMP-inhibited 3',5'-cyclic phosphodiesterase 3B (Homo sapiens, UniProt Q13370); assay: as §1, with “PDE3B” for “PDE3A”, “1:6000).” for “1:5000).”
Sequence of cGMP-inhibited 3',5'-cyclic phosphodiesterase 3B (Q13370 whole entry): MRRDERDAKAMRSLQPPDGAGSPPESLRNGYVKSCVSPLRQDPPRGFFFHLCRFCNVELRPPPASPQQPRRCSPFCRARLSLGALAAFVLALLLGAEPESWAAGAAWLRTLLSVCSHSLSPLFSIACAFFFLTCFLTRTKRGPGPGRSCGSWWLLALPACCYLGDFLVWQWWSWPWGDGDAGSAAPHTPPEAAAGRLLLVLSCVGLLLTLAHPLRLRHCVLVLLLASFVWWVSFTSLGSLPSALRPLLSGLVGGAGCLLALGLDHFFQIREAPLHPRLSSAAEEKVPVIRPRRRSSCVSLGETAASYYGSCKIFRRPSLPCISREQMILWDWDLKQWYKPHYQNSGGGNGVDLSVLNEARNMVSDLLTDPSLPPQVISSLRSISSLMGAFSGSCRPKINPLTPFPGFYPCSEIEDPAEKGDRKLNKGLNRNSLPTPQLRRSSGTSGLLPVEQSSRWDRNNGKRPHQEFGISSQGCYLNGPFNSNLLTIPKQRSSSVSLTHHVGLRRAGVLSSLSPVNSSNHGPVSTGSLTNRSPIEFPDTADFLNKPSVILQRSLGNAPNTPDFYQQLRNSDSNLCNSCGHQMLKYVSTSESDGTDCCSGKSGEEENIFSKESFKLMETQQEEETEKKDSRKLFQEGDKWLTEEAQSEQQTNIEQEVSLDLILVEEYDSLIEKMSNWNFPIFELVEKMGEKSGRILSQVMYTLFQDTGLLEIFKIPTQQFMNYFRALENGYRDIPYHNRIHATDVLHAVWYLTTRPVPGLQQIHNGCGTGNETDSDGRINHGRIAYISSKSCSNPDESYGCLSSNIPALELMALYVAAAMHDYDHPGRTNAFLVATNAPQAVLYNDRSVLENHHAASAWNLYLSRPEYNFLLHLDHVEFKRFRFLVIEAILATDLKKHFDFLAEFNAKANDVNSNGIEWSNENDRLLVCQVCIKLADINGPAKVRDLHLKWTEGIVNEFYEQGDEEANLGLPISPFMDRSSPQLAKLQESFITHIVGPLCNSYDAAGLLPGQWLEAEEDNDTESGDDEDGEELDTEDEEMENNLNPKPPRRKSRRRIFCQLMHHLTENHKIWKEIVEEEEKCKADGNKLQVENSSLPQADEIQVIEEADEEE

Structure (SMILES) | IC50 [1] | IC50 [2]
C[C@@H]1OC(=O)NN=C1c1ccc(N2CC(F)(F)C2)c(C(F)(F)F)c1 | 20 nM | 23 nM
Cc1cc(C2=NNC(=O)OC2)ccc1-c1cccnc1 | 110 nM | 44 nM
C[C@@H]1OC(=O)NN=C1c1ccc(-n2ccc(C(F)(F)F)n2)c(C(F)(F)F)c1 | 657 nM | 383 nM
C[C@@H]1OC(=O)NN=C1c1ccc(N2CC(C)(O)C2)c(C(F)(F)F)c1 | 11 nM | 9 nM
